Test results taken from patent publication US4332820A, “Substituted benzonitriles having antiviral activity” (The Dow Chemical Company, priority 1980, dated 1982).
Values after ≈ are worked out from the molar mass of the structure shown.

Key:
[1] = Cytotoxicity in tissue culture (HeLa monolayers); format: cell-based; settings: human; HeLa cells; observed at 48 and 72 hours post-treatment; read-out: Cytotoxicity (concentration of the compound found to be toxic to the cell)
[2] = tested on: rhinovirus type 1A (RV-1A); assay: Tissue culture antiviral testing, RV-1A (cytopathic effect, HeLa cells); format: cell-based; settings: Enterovirus, HeLa cells, NA = not active at the standard test conditions, read-out: Lowest concentration of the compound necessary to cause a 50 percent reduction in cytopathic effect
rhinovirus type 2 (RV-2) = assay: Tissue culture antiviral testing, RV-2 (cytopathic effect, HeLa cells); format: cell-based; settings: Enterovirus, HeLa cells, NA = not active at the standard test conditions, read-out: Lowest concentration of the compound necessary to cause a 50 percent reduction in cytopathic effect
[3] = tested on: Coxsackie A21 virus (Cox A21); assay: Tissue culture antiviral testing, Cox A21 (cytopathic effect, HeLa cells); format: cell-based; settings: HeLa cells, NA = not active at the standard test conditions, read-out: Lowest concentration of the compound necessary to cause a 50 percent reduction in cytopathic effect
rhinovirus type 5 (RV-5) = assay: Tissue culture antiviral testing, RV-5 (cytopathic effect, HeLa cells); format: cell-based; settings: Enterovirus, HeLa cells, read-out: Lowest concentration of the compound necessary to cause a 50 percent reduction in cytopathic effect
rhinovirus type 8 (RV-8) = assay: Tissue culture antiviral testing, RV-8 (cytopathic effect, HeLa cells); format: cell-based; settings: Enterovirus, HeLa cells, read-out: Lowest concentration of the compound necessary to cause a 50 percent reduction in cytopathic effect
Cox A21 = assay: Single Oral Dose test in mice challenged with Cox A21; format: in vivo, Swiss male mice; settings: for X^2 (Single Oral Dose, chi-square of deaths vs virus control): 600 mg/kg, 3 h
Coxsackie A21 virus = assay: Continuous Oral Feeding test in mice challenged with Coxsackie A21; format: in vivo; settings: for X^2 (Continuous Oral Feeding, chi-square of deaths): 0.06 % in diet, 240 h, 0.06 % strength
[4] = tested on: rhinovirus type 64 (RV-64); assay: Tissue culture antiviral testing, RV-64 (cytopathic effect, HeLa cells); format: cell-based; settings: Enterovirus, HeLa cells, NA = not active at the standard test conditions, read-out: Lowest concentration of the compound necessary to cause a 50 percent reduction in cytopathic effect
[5] = tested on: Hank's (untyped) rhinovirus; assay: Inhibition of multiplication, WI-38 cell culture tubes; format: cell-based; settings: Enterovirus, 25 μg/ml, read-out: inhibition grade
rhinovirus type 4 = assay: as above; format: cell-based; settings: Enterovirus, 25 μg/ml, read-out: inhibition grade
rhinovirus type 6 = assay: as above; format: cell-based; settings: Enterovirus, 25 μg/ml, read-out: inhibition grade
rhinovirus type 8 = assay: as above; format: cell-based; settings: Enterovirus, 25 μg/ml, read-out: inhibition grade
rhinovirus type 10 = assay: as above; format: cell-based; settings: Enterovirus, 25 μg/ml, read-out: inhibition grade
rhinovirus type 13 = assay: as above; format: cell-based; settings: Enterovirus, 25 μg/ml, read-out: inhibition grade
rhinovirus type 17 = assay: as above; format: cell-based; settings: Enterovirus, 25 μg/ml, read-out: inhibition grade
rhinovirus type 19 = assay: as above; format: cell-based; settings: Enterovirus, 25 μg/ml, read-out: inhibition grade
rhinovirus type 21 = assay: as above; format: cell-based; settings: Enterovirus, 25 μg/ml, read-out: inhibition grade
rhinovirus type 29 = assay: as above; format: cell-based; settings: Enterovirus, 25 μg/ml, read-out: inhibition grade
rhinovirus type 39 = assay: as above; format: cell-based; settings: Enterovirus, 25 μg/ml, read-out: inhibition grade
rhinovirus type 56 = assay: as above; format: cell-based; settings: Enterovirus, 25 μg/ml, read-out: inhibition grade
rhinovirus type 58 = assay: as above; format: cell-based; settings: Enterovirus, 25 μg/ml, read-out: inhibition grade
rhinovirus type 59 = assay: as above; format: cell-based; settings: Enterovirus, 25 μg/ml, read-out: inhibition grade
rhinovirus type 60 = assay: as above; format: cell-based; settings: Enterovirus, 25 μg/ml, read-out: inhibition grade
rhinovirus type 64 = assay: as above; format: cell-based; settings: Enterovirus, 25 μg/ml, read-out: inhibition grade
rhinovirus type 68 = assay: as above; format: cell-based; settings: Enterovirus, 25 μg/ml, read-out: inhibition grade
rhinovirus type 74 = assay: as above; format: cell-based; settings: Enterovirus, 25 μg/ml, read-out: inhibition grade
rhinovirus type 75 = assay: as above; format: cell-based; settings: Enterovirus, 25 μg/ml, read-out: inhibition grade
rhinovirus type 81 = assay: as above; format: cell-based; settings: Enterovirus, 25 μg/ml, read-out: inhibition grade
Coxsackie B2 = format: cell-based; settings: enterovirus Coxsackie B2
Coxsackie B4 = format: cell-based; settings: enterovirus Coxsackie B4
influenza A = format: cell-based; settings: at the test concentrations
influenza WSN = assay: Further tissue culture testing; format: cell-based; settings: at the test concentrations
influenze PR 8 = format: cell-based; settings: at the test concentrations
parainfluenza 1 = format: cell-based; settings: at the test concentrations
[6] = tested on: parainfluenza NDV (Newcastle's disease virus); format: cell-based; settings: at the test concentrations
adenovirus (untyped) = format: cell-based; settings: at the test concentrations
[7] = tested on: Herpes simplex virus type 1; format: cell-based; settings: at the test concentrations
[8] = tested on: feline calici virus, unconfirmed; format: cell-based; settings: at the test concentrations
Acute toxicity in rats = settings: rat, in vivo
[9] = Acute oral toxicity in beagle dogs; settings: dog, in vivo
Text: Testing in beagle dogs indicated an acute oral toxicity of greater than 2 grams/kg.

Picornaviruses = assay: Antiviral activity against picornaviruses, overall (tissue culture and animal testing)
Description: Monolayered HeLa cells in 16 millimeter (mm) tissue culture dishes were treated with 1 ml of culture medium (Eagles medium supplemented with fetal calf serum) containing subject compound at an appropriate concentration or containing no compound at all. Culture mediums such as those described herein are more fully described in standard texts, as for example, Kuchler's Biochemical Methods in Cell Culture and Virology, Dowden, Hutchinson and Ross, Inc., Stroudsberg, Pa. (1977). Following treatment, cells were challenged with 0.05 ml of rhinovirus type 1A (RV-1A), rhinovirus type 2 (RV-2) or Coxsackie A21 virus (Cox A21) in culture medium. Some of the compounds were also tested against rhinovirus type 5 (RV-5), rhinovirus type 8 (RV-8) or rhinovirus type 64 (RV-64). Cell controls received no viruses.
In addition, some of the compounds were tested in animals utilizing the following procedure, hereinafter referred to as the "Single Oral Dose" test. […] Mice were observed daily for 7-10 days post-challenge and deaths recorded. […]
Some of the compounds were also tested in animals utilizing the following procedure, hereinafter referred to as the "Continuous Oral Feeding" test. […] Deaths in both control and experimental groups were recorded for the 10 days and the results analyzed by a chi-square test. […]

N#Cc1cc([N+](=O)[O-])ccc1Oc1ccc(Cl)cc1 [Example 4, 2-(4-Chlorophenoxy)-5-nitrobenzonitrile]
MCC [1]: > 100 µg/mL
EC50 [2]: ≤ 0.625 µg/mL
EC50 (rhinovirus type 2 (RV-2)): ≤ 0.625 µg/mL
EC50 [3]: 0.625 µg/mL (≈ 2.28 µM)
EC50 (rhinovirus type 5 (RV-5)): < 0.3 µg/mL
EC50 (rhinovirus type 8 (RV-8)): < 6 µg/mL
X^2 (Single Oral Dose, chi-square of deaths vs virus control) (Cox A21): 0.252
X^2 (Continuous Oral Feeding, chi-square of deaths) (Coxsackie A21 virus): 10.61

N#Cc1cc([N+](=O)[O-])ccc1Oc1ccc(Cl)cc1Cl [Example 2, 2-(2,4-Dichlorophenoxy)-5-nitrobenzonitrile]
MCC [1]: > 100 µg/mL
EC50 [2]: 0.625 µg/mL (≈ 2.02 µM)
EC50 (rhinovirus type 2 (RV-2)): 0.625 µg/mL (≈ 2.02 µM)
EC50 [3]: 1.25 µg/mL (≈ 4.04 µM)
EC50 (rhinovirus type 5 (RV-5)): 2.5 µg/mL (≈ 8.09 µM)
EC50 (rhinovirus type 8 (RV-8)): 2.5 µg/mL (≈ 8.09 µM)
X^2 (Single Oral Dose, chi-square of deaths vs virus control) (Cox A21): 3.659
X^2 (Continuous Oral Feeding, chi-square of deaths) (Coxsackie A21 virus): 1.38

N#Cc1cc([N+](=O)[O-])ccc1Oc1ccc(Cl)c(Cl)c1 [Example 1, 2-(3,4-Dichlorophenoxy)-5-nitrobenzonitrile]
MCC [1]: > 100 µg/mL
EC50 [2]: 0.5 µg/mL (≈ 1.62 µM)
EC50 (rhinovirus type 2 (RV-2)): 0.25 µg/mL (≈ 0.809 µM)
EC50 [3]: 0.25 µg/mL (≈ 0.809 µM)
EC50 (rhinovirus type 5 (RV-5)): 0.5 µg/mL (≈ 1.62 µM)
EC50 (rhinovirus type 8 (RV-8)): 0.25 µg/mL (≈ 0.809 µM)
EC50 [4]: 0.156 µg/mL (≈ 0.505 µM)
antiviral activity in the "Single Oral Dose" test (Cox A21; in words, 95% confidence level): exhibited antiviral activity
X^2 (Single Oral Dose, chi-square of deaths vs virus control) (Cox A21): 5.36
antiviral activity in the "Continuous Oral Feeding" test (Coxsackie A21 virus; in words, 95% confidence level): exhibited antiviral activity
X^2 (Continuous Oral Feeding, chi-square of deaths) (Coxsackie A21 virus): 23.62
inhibition at 25 µg/mL [5]: ≥ 75%
inhibition at 25 µg/mL (rhinovirus type 4): ≥ 75%
inhibition at 25 µg/mL (rhinovirus type 6): ≥ 75%
inhibition at 25 µg/mL (rhinovirus type 8): ≥ 75%
inhibition at 25 µg/mL (rhinovirus type 10): ≥ 75%
inhibition at 25 µg/mL (rhinovirus type 13): ≥ 75%
inhibition at 25 µg/mL (rhinovirus type 17): ≥ 75%
inhibition at 25 µg/mL (rhinovirus type 19): ≥ 75%
inhibition at 25 µg/mL (rhinovirus type 21): ≥ 75%
inhibition at 25 µg/mL (rhinovirus type 29): ≥ 75%
inhibition at 25 µg/mL (rhinovirus type 39): ≥ 75%
inhibition at 25 µg/mL (rhinovirus type 56): ≥ 75%
inhibition at 25 µg/mL (rhinovirus type 58): ≥ 75%
inhibition at 25 µg/mL (rhinovirus type 59): ≥ 75%
inhibition at 25 µg/mL (rhinovirus type 60): ≥ 75%
inhibition at 25 µg/mL (rhinovirus type 64): ≥ 75%
inhibition at 25 µg/mL (rhinovirus type 68): ≥ 75%
inhibition at 25 µg/mL (rhinovirus type 74): ≥ 75%
inhibition at 25 µg/mL (rhinovirus type 75): ≥ 75%
inhibition at 25 µg/mL (rhinovirus type 81): ≥ 75%
inhibitory activity (Coxsackie B2): displayed inhibitory activity
inhibitory activity (Coxsackie B4): displayed inhibitory activity
effect on virus multiplication (influenza A): did not affect the multiplication
effect on virus multiplication (influenza WSN): did not affect the multiplication
effect on virus multiplication (influenze PR 8): did not affect the multiplication
effect on virus multiplication (parainfluenza 1): did not affect the multiplication
effect on virus multiplication [6]: did not affect the multiplication
effect on virus multiplication (adenovirus (untyped)): did not affect the multiplication
effect on virus multiplication [7]: did not affect the multiplication
effect on virus multiplication [8]: did not affect the multiplication
LD50 (Acute toxicity in rats; ip, intraperitoneal, read-out: acute toxicity, intraperitoneal administration): > 2000 mg/kg
LD50 (Acute toxicity in rats; oral, read-out: acute oral toxicity): ~5000 mg/kg
LD50 [9]: > 2000 mg/kg
effectiveness against picornaviruses (Picornaviruses; general statement): particularly effective against Picornaviruses
antiviral activity compared with 5-(3,4-dichlorophenoxy)-2-nitrobenzonitrile (Picornaviruses; standard tissue culture and animal testing): markedly greater antiviral activity
